The source of these data is paper PMC6017703, “Synthesis and Biological Evaluation of New Thiosemicarbazone Derivative Schiff Bases as Monoamine Oxidase Inhibitory Agents” (Molecules : A Journal of Synthetic Chemistry and Natural …, 2017).

This assay concerns the target T1, monoamine oxidase A (MAO-A) (Homo sapiens, UniProt P21397).
T1 construct: gene MAOA; recombinant MAO-A
T1 sequence (P21397 1-527): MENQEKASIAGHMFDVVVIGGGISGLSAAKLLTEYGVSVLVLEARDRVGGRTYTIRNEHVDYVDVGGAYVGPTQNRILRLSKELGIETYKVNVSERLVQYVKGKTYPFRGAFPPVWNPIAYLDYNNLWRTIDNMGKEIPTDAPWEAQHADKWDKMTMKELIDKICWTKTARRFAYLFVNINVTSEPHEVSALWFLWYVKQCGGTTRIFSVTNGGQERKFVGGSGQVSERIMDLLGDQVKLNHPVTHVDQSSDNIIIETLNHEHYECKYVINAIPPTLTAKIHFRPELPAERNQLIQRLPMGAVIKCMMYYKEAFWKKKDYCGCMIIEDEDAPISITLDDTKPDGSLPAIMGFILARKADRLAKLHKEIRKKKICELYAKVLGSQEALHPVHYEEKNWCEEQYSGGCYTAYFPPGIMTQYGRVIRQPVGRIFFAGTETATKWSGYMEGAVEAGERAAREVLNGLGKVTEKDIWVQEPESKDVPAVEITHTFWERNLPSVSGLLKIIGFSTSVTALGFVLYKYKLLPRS
Description: fluorometric Ampliflu Red/HRP assay with tyramine; Lineweaver-Burk kinetics (IC50 also […]). In kind it is biochemical.

As to `S=C(NN=Cc1ccc(Sc2ccc(Cl)cc2)cc1)NC1CCCCC1` [B24, N-Cyclohexyl-2-[4-[(4-chlorophenyl)thio]benzylidene]hydrazine-1-carbothioamide], affinity was put at a Ki of 142 nM.
